Data reported in patent publication US20040082503A1, “Methods for treatment of diabetes using peptide analogues of insulin” (Neurocrine Biosciences, Inc., priority 1998, published 2004).
Where “and” joins values, the source holds several entries; their conditions need not be identical. Equal entries are not always repeated.

Key:
[1] = system: NOD mice (spontaneous diabetes); experiment: Reduction of incidence of diabetes in NOD mice; format: in vivo, NOD mouse
[2] = system: Insulin B chain (9-23) specific murine T cell clone PD12-2.35; experiment: Proliferation of insulin B chain (9-23) specific murine T cell clone PD12-2.35; format: cell-based, mouse (NOD); conditions: clone PD12-2.35, 50 μM peptide, Exp. 1 and 2; for S.I. (Stimulation Index): cpm with peptide/cpm in medium alone
Description: (§1) Insulin specific NOD T cell lines were established by culturing lymphocytes isolated from islet-infiltrating populations by in vitro stimulation with either porcine insulin at 25 μg/ml and irradiated NOD islet cell in the presence of irradiated NOD spleen cells as antigen presenting cells and cytokines. To obtain the infiltrating lymphocytes the following procedures were performed (see Wegmann et al., Eur. J. Immunol. 24:1853, 1994): the pancreas from the NOD mouse was digested with collagenase and individual islets were isolated manually. The infiltrating lymphocytes were then obtained by mild trypsin digestion of the islets. The insulin specific T cell lines or clones were propagated by serial stimulation in the presence of NOD spleen cells, porcine insulin and lymphokines. Clones were obtained by limiting dilution of the B chain (9-23) specific T cell lines in the presence of the antigen presenting cells and porcine insulin at 25 μg/ml. Wells with a growing population of cells following limiting dilution were expanded in appropriate medium, and after one cycle of growth were tested for reactivity to the B chain (9-23) peptide of insulin by evaluating the proliferative response.
(§2) Insulin B chain (9-23) (SEQ ID NO:2) specific mouse (NOD) T cell clones were isolated from infiltrated islets as described in Example 2. Peptide analogues with single alanine substitutions were prepared as described in Example 1. The effect of each analogue on T cell proliferation was then evaluated using an assay performed in 96-well flat bottom microtiter plates (see Daniel et al., Eur. J. Immunol. 25:1056, 1995). Briefly 25,000 T cell clones along with 1 million irradiated NOD spleen cells were cultured in the presence of 50 μg/ml of insulin B chain 9-23 peptide or any of the alanine substituted peptides listed below in triplicate sets. The plates were incubated for a total of 72 hours in 7% carbon dioxide atmosphere with a pulse of 1 μCi/well of tritiated thymidine for the last 6-8 hours of culture. Cells were harvested on a glass fiber filter and the associated radioactivity was counted in a liquid scintillation counter. Results are expressed as mean counts per minute of triplicate wells.
(§3) NOD T cell clones were incubated in the presence of 50 μM of either the native B chain (9-23) peptide or NBI-6024. The data in Table 3 represent the mean of triplicate sample±standard error of the mean. Within Table 3, S.I. (Stimulation Index)=proliferation (cpm) in the presence of the peptide/proliferation (cpm) in medium alone.

[3] = system: insulin B chain (9-23) responsive T cell lines from diabetic patients; experiment: Proliferation of T cell lines from diabetic patients; format: cell-based, human; conditions: for Stimulation Index: 50 μM peptide
Description: FIGS. 4-6 are histograms illustrating the proliferative response (measured in cpm) of T cell lines from different diabetic patients to the native B chain (9-23) peptide or to representative peptide analogues. Peripheral blood mononuclear cells were isolated from diabetic patients and cultured in the presence of insulin B chain (9-23) peptide. After three rounds of restimulation with insulin B chain (9-23), 1×10^5 T-cells and 7×10^4 irradiated autologous PBMCs were added to each well in a round bottom 96-well plate in complete medium. Cells were cultured for 5 days with NBI-6024 (insulin B chain 9-23 with alanine substitutions at positions 16 and 19), insulin B chain (9-23) or medium only. On day 4, the cells were pulsed with ^3H-thymidine and re-cultured for an additional 18 hours. The cultures were then harvested, counted using liquid scintillation, and the data was expressed as the mean counts per minute (cpm) of replicate samples±standard error of the mean (sem).
FIG. 7 is a histogram illustrating the proliferative response (measured in cpm) of a T cell line from a diabetic patient to the native B chain (9-23) peptide or to representative peptide analogues containing alanine substitutions as indicated. Peripheral blood mononuclear cells were isolated from diabetic patients and cultured in the presence of insulin B chain (9-23) peptide. After three rounds of restimulation with insulin B chain (9-23), 1×10^5 T-cells and 7×10^4 irradiated autologous PBMCs were added to each well in a round bottom 96-well plate in complete medium. Cells were cultured for 5 days with analogue, insulin B chain (9-23) or medium only (BKG), as indicated. On day 4, the cells were pulsed with ^3H-thymidine and re-cultured for an additional 18 hours. The cultures were then harvested, counted using liquid scintillation, and the data was expressed as the mean counts per minute (cpm) of replicate samples±standard error of the mean (sem).
Peptide analogues of B chain (9-23) containing alanine substitutions at residues 13, 15, 16 or 17 or the doubly substituted alanine analog A^16, 19 (NBI-6024) were prepared as described in Example 1. T cell lines from diabetic patients were prepared by isolating lymphocytes from the blood of the patient by subjecting the blood to a density gradient separation. Isolated lymphocytes were then cultured in the presence of the insulin B chain (9-23) peptide (10 μM) and recombinant human IL-2 in the presence of 5-10% of autologous serum and irradiated autologous peripheral blood lymphocytes in culture medium. Four to five days later cells were harvested and the cycle repeated for 2 or 3 times.
Proliferation of the T cell line, in response to the native B chain (9-23) peptide (SEQ ID NO:2) or to the peptide analogs, was measured by culturing 25,000 to 100,000 T cells in the presence of 50,000-200,000 irradiated autologous PBLs and different concentrations of the insulin B chain (9-23) peptide or a peptide analogue in triplicate cultures. Following 4-5 days of culture, including the last 18 hours with radioactive thymidine, cells were harvested and the associated radioactivity was counted in a liquid scintillation counter. Results are expressed as mean counts per minute for each of the peptide analogues tested.

[4] = system: Insulin specific NOD T cell clone PD12-2.40; experiment: Proliferation of insulin-specific NOD T cell clone PD12-2.40; format: cell-based, mouse (NOD); conditions: for S.I. (Stimulation Index): clone PD12-2.40, 50 μM peptide, cpm with peptide/cpm in medium alone, Exp. 1 and 2
Description: as §1, §2, §3

[5] = system: Insulin specific NOD T cell clone PD12-4.29; experiment: Proliferation of insulin-specific NOD T cell clone PD12-4.29; format: cell-based, mouse (NOD); conditions: 50 μg/ml peptide, 72 h, 3H-thymidine; no antigen 789 cpm
Description: as §1, §2

[6] = patient number 1 (ID 100) PBLs, CPM with antigen/CPM with medium alone
[7] = patient number 8 (ID 1100) PBLs
[8] = listed as Insulin B Chain (9-23)

“NBI-6024: insulin B chain 9-23 with alanine substitutions at positions 16 and 19 (SHLVEALALVAGERG)” was tested, and the “Reduction of the incidence of diabetes compared to the untreated group” value ([1]; female NOD mice, 20 mg/kg (400 μg/mouse) s.c. weekly for 12 weeks then every other week until Week 35, p<0.004, FIG. 11) was 60-70%, the “Incidence of diabetes compared to neurotensin treated or untreated group” value ([1]; second experiment, NOD mice, 20 mg/kg s.c., FIG. 12) was “reduced incidence of diabetes” and the “Proliferative response, Mean cpm ± sem” value [2] was 841 ± 88 cpm and 452 ± 179 cpm. For the same substance, the “S.I. (Stimulation Index)” value [2] was 1.22 and 0.91, the “Stimulation of diabetic patients' T cell lines and clones responsive to native insulin B chain (9-23)” value ([3]; FIGS. 4-7, Table 5) was “do not respond” and the “Stimulation Index” value [3, 6] was 0.9. For the same substance, the “Stimulation Index” value ([3]; patient number 2 (ID 200) PBLs) was 1.2, the “Stimulation Index” value ([3]; patient number 3 (ID 400) PBLs) was 1.0 and the “Stimulation Index” value ([3]; patient number 4 (ID 500) PBLs) was 0.9. The “Stimulation Index” value ([3]; patient number 5 (ID 600) PBLs) was 1.6, the “Stimulation Index” value ([3]; patient number 6 (ID 700) PBLs) was 1.5 and the “Stimulation Index” value ([3]; patient number 7 (ID 900) PBLs) was 0.9. For the same substance, the “Stimulation Index” value [3, 7] was 0.8 and the “S.I. (Stimulation Index)” value [4] was 1.01 and 1.16.
“Native 9-23: native peptide, residues 9-23 of human insulin B chain (SEQ ID NO:2) (SHLVEALYLVCGERG; Residues 9-23 of human insulin B chain; listed as Homo sapiens) [reference compound]” was tested, and the “Incidence of diabetes (percent of mice diabetic)” value ([1]; NOD mice, 400 μg s.c. weekly, 13 treatments, neurotensin as control, FIG. 10) was “reduced the incidence of diabetes”, the “Proliferative response, Mean cpm ± sem” value [2, 8] was 120,886 ± 7,171 cpm and 100,521 ± 1,581 cpm and the “S.I. (Stimulation Index)” value [2, 8] was 175.7 and 203.89. The “Response (cpm) of T cell clone PD12-4.29” value [5] was 14820 cpm, the “Stimulation Index” value [3, 6] was 9.9 and the “Stimulation Index” value ([3]; patient number 2 (ID 200) PBLs) was 5.3. For the same substance, the “Stimulation Index” value ([3]; patient number 3 (ID 400) PBLs) was 7.8, the “Stimulation Index” value ([3]; patient number 4 (ID 500) PBLs) was 2.1 and the “Stimulation Index” value ([3]; patient number 5 (ID 600) PBLs) was 5.8. The “Stimulation Index” value ([3]; patient number 6 (ID 700) PBLs) was 3.2, the “Stimulation Index” value ([3]; patient number 7 (ID 900) PBLs) was 2.6 and the “Stimulation Index” value [3, 7] was 3.7. For the same substance, the “Response (cpm) of T cell clone PD12-2.40” value ([4]; 50 μg/ml peptide, 72 h, 3H-thymidine, no antigen 682 cpm) was 32221 cpm and the “S.I. (Stimulation Index)” value [4, 8] was 96.16 and 98.4.
